Results from publication PMC5268466, “Monofluorophosphate Blocks Internal Polysaccharide Synthesis in Streptococcus mutans” (PLoS ONE, 2017).

Molecular target: T1, S. mutans ADP-Glc PPase (GlgC/GlgD) (Streptococcus mutans, UniProt M9TIK1)
T1 sequence (M9TIK1 1-381): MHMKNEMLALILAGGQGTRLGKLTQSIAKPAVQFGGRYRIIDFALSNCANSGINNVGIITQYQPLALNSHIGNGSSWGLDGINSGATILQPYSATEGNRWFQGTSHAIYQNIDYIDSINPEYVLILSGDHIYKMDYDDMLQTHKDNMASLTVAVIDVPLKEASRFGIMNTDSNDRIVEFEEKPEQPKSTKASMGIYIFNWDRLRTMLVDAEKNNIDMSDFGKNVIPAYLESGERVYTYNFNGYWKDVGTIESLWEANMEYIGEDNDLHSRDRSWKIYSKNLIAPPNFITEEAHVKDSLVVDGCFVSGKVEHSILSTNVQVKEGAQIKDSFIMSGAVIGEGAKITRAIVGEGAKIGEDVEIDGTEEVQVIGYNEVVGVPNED
T1 sequence (M9TG57 1-377 partner): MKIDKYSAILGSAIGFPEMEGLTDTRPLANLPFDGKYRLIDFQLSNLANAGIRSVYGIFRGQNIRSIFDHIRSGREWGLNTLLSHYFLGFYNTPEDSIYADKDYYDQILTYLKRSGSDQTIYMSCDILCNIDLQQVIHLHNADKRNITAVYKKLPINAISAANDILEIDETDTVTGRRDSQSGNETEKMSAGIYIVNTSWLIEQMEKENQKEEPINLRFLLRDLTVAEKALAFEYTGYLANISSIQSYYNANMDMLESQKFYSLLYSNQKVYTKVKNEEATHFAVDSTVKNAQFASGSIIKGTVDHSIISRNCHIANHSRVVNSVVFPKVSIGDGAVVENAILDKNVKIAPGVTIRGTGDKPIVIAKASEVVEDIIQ
Conditions: 2500 µM, pH 8.0, 37 C, allosteric

O=P(O)(O)O [Pi, orthophosphate]
No Fru-1,6-bisP / Activity (% remaining activity): 15 ± 2%
